Measured values reported in the supplement of paper PMC10307832.

Experiments:
Test in all cases: relative viability (nuclei count vs DMSO), 5 days (fraction); higher = more cells survive
[1] = compound: C[C@@H](N)c1ccc(C(=O)Nc2ccnc3[nH]ccc23)cc1 + Nc1nc2[nH]cc(CCc3ccc(C(=O)N[C@@H](CCC(=O)O)C(=O)O)cc3)c2c(=O)[nH]1 [Pemetrexed] (partner 0.2 µM)
Summary of the method: (§1)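 Lung cancer cell lines in 1536-well plates were dosed by pin tool the day after seeding, either with one drug alone or with a fixed anchor-drug dose plus five library-drug doses (not always all listed) in √10 steps. After 5 days, cells were fixed and their nuclei stained in one step (final 0.05% Triton X-100, 1% formaldehyde, 1 ug/ml Hoechst), then counted on 4× images. Relative viability is the nuclei count in treated wells divided by that in vehicle wells. Values are medians of duplicate plates.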

[2] = compound: O[C@H]1CC[C@H](Nc2ncc3nc(Nc4c(F)cc(F)cc4F)n([C@H]4CCOC4)c3n2)CC1 [Tanzisertib] + CC(=O)Nc1cccc(-n2c(=O)n(C3CC3)c(=O)c3c(Nc4ccc(I)cc4F)n(C)c(=O)c(C)c32)c1 [Trametinib] (partner 0.02 µM)
Summary of the method: as §1

[3] = compound: C[C@@H](N)c1ccc(C(=O)Nc2ccnc3[nH]ccc23)cc1 + CS(=O)(=O)N1CCN(Cc2cc3nc(-c4cccc5[nH]ncc45)nc(N4CCOCC4)c3s2)CC1 [Pictilisib] (partner 1 µM)
Summary of the method: as §1

[4] = compound: C1CNCCC1C2=CC(=NN2)C3=CC=NC=C3 + O=C(c1cc(Cc2n[nH]c(=O)c3ccccc23)ccc1F)N1CCN(C(=O)C2CC2)CC1 [Olaparib] (partner 8 µM)
Summary of the method: as §1

Cell Line	relative viability ([1]; first compound 0.04 µM)	relative viability ([1]; first compound 0.1265 µM)	relative viability ([1]; first compound 0.4 µM)	relative viability ([1]; first compound 1.265 µM)	relative viability ([1]; first compound 4 µM)	relative viability ([2]; first compound 0.08 µM)	relative viability ([2]; first compound 0.253 µM)	relative viability ([2]; first compound 0.8 µM)	relative viability ([2]; first compound 2.53 µM)	relative viability ([2]; first compound 8 µM)	relative viability ([3]; first compound 0.04 µM)	relative viability ([3]; first compound 0.1265 µM)	relative viability ([3]; first compound 0.4 µM)	relative viability ([3]; first compound 4 µM)	relative viability ([4]; first compound 0.08 µM)	relative viability ([4]; first compound 0.8 µM)	relative viability ([4]; first compound 2.53 µM)	relative viability ([4]; first compound 8 µM)	relative viability ([3]; first compound 1.265 µM)
NCI-H1355	1.1	1.06	1.01	1.06	1.05	0.455	0.433	0.47	0.417	0.464	0.338	0.429	0.555	0.351	0.704	0.727	0.792	0.792	
EKVX	0.365	0.383	0.566	0.354	0.379	0.487	0.301	0.368	0.347	0.295	0.582	0.489	0.532	0.443	0.882		1.05	0.755	0.467
NCI-H441	0.245	0.302	0.257	0.231	0.223	0.567	0.452	0.456	0.429	0.388	0.549	0.569	0.553	0.458	0.422	0.673	0.57	0.567	0.4
NCI-H1975	0.313	0.31	0.265	0.228	0.211	0.396	0.422	0.345	0.349	0.341	0.281	0.281	0.287	0.236	0.87	0.894	0.936	0.778	0.228
HCC-78	0.942	0.928	0.906	0.98	0.963	0.847	0.737	0.889	0.787	0.842	0.509	0.318	0.297	0.254	0.821		0.985	0.748	0.137
NCI-H2085	0.825	0.863	0.732	0.733	0.668		0.604	0.436	0.556	0.491	0.6	0.63	0.581	0.606	0.903		0.807	0.746	0.704
H3255	0.556	0.554	0.552	0.555	0.501	0.696	0.646	0.766	0.726	0.523	0.496	0.576	0.608	0.515	0.562	0.567	0.601	0.608	0.581
NCI-H2087	0.654	0.651	0.65	0.571	0.577	0.256	0.171	0.21	0.181	0.182	1.04	0.78	0.908	0.797	0.522	0.545	0.528	0.633	0.153
LC-2-ad	0.263	0.267	0.248	0.279	0.259	1	0.915	0.973	0.932	0.877	0.641	0.43	0.696	0.372	0.719	0.781	0.664	0.694	0.592
PC-3 [JPC-3]	1.12	1.07	1.16	1.07	0.88	0.715	0.759	0.763	0.774	0.612	0.741	0.784	0.788	0.683	1.09	1.24	1.11	1.15	0.632
EBC-1											0.38	0.408	0.347	0.593	0.778	0.722	0.804	0.741	0.473
HCC-15	0.242	0.242	0.209	0.212	0.233	0.406	0.364	0.414	0.36	0.342	0.821	0.705	0.796	0.731	0.694	0.789	0.766	0.588	
NCI-H1563	0.772	0.915	0.867	0.413	0.706						0.691	0.661	0.638	0.688					0.578
COR-L 105	1	1.12	0.94	0.98	0.619	0.43	0.493	0.485	0.448	0.37	0.435	0.297	0.399	0.309	0.7	0.721	0.675	0.746	0.255
NCI-H520	0.624	0.668	0.69	0.802	0.652	0.734	0.724	0.814	0.776	0.646	0.33	0.301	0.29	0.504	0.332	0.356	0.381	0.266	0.396
